From patent US20200270233A1, “DHFR INHIBITORS, COMPOSITIONS, AND METHODS RELATED THERETO” (Vyera Pharmaceuticais LLC, priority 2017, published 2020)
Read-outs that look alike come from different tables or passages of the source.

Columns and labels:
hDHFR = target: T1, hDHFR (Homo sapiens, UniProt P00374); assay type: biochemical
T1 sequence (P00374 1-187): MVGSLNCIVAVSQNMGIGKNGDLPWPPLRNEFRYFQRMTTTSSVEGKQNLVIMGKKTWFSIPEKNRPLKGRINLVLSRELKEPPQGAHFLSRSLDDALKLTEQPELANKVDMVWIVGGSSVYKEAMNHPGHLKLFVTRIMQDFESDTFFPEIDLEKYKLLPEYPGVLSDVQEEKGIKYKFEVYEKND

T. cruzi DHFR (tcDHFR) = T. cruzi DHFR (tcDHFR) (Trypanosoma cruzi, UniProt Q27793); experiment: biochemical; settings: for Average DHFR selectivity (h/tc): hDHFR IC50/tcDHFR IC50
T. gondii DHFR (tgDHFR) = target: T2, T. gondii DHFR (tgDHFR) (Toxoplasma gondii, UniProt Q07422); experiment: biochemical; settings: for Average DHFR selectivity (h/tg): hDHFR IC50/tgDHFR IC50
T2 sequence (Q07422 1-610): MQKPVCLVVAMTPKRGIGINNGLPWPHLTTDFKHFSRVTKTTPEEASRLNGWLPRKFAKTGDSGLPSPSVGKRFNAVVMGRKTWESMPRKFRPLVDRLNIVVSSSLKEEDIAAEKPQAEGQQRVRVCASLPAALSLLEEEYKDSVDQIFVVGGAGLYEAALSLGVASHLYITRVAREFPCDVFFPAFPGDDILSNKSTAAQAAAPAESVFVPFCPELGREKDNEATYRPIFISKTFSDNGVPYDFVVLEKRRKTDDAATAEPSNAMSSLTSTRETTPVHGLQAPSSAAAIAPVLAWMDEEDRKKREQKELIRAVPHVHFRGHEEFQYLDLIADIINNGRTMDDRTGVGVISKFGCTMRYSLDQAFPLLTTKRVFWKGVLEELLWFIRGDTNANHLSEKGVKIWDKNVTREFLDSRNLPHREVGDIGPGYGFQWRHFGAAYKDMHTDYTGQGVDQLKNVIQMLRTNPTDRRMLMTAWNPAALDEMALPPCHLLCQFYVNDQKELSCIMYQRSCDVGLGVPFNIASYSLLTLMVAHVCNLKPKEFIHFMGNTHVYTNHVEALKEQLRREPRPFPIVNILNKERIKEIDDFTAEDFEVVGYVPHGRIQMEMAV

[1] = Table 17, pIC50 = -log10 IC50, at least three replicates, read-out: hDHFR pIC50-DHFR primary assay (converted)
[2] = Table 17, pIC50 = -log10 IC50, at least three replicates, read-out: tcDHFR pIC50-DHFR primary assay (converted)
[3] = Table 16, pIC50 = -log10 IC50, at least three replicates, read-out: hDHFR pIC50-DHFR primary assay (converted)
[4] = Table 16, pIC50 = -log10 IC50, at least three replicates, read-out: tgDHFR pIC50-DHFR primary assay (converted)

T. cruzi DHFR (tcDHFR), sequence (Q27793 whole entry): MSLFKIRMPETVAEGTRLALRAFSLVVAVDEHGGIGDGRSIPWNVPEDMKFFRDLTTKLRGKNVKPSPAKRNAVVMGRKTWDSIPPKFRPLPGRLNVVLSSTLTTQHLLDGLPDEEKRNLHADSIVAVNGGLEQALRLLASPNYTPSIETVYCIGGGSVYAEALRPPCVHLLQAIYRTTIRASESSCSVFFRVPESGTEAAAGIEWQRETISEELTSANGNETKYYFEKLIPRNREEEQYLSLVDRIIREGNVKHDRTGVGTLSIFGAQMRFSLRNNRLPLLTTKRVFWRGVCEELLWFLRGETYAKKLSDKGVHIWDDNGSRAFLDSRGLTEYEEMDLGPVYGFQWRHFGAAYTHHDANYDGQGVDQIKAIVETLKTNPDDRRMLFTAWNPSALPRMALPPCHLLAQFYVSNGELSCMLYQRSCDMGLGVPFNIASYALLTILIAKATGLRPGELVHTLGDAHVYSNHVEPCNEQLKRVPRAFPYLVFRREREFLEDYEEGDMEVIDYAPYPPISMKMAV

| SMILES | IC50 (hDHFR; [1]) [nM] | Average DHFR selectivity (h/tc) (T. cruzi DHFR (tcDHFR); Table 17) | IC50 (T. cruzi DHFR (tcDHFR); [2]) [nM] | IC50 (hDHFR; [3]) [nM] | also measured |
| --- | --- | --- | --- | --- | --- |
| Nc1ncc(N2CCN(c3ccc(F)cc3)CC2)c(N)n1 [Compound 116, 5-(4-(4-fluorophenyl)piperazin-1-yl)pyrimidine-2,4-diamine] | 5010 | – | – | – | IC50 (T. cruzi DHFR (tcDHFR)): 50.1 nM |
| Cc1ccc(N2CCN(c3cnc(N)nc3N)CC2)cc1 [Compound 8, 5-(4-(p-tolyl)piperazin-1-yl)pyrimidine-2,4-diamine] | – | – | – | – | IC50 (T. cruzi DHFR (tcDHFR)): 18.2 nM |
| Cc1ccc(N2CCN(c3cnc(N)nc3N)CC2)cn1 [Compound 146, 5-(4-(6-methylpyridin-3-yl)piperazin-1-yl)pyrimidine-2,4-diamine] | 7410 | 222.395 | 33.5 | – | – |
| COc1ccc(N2CCN(c3cnc(N)nc3N)CC2)cn1 [Compound 188, 5-(4-(6-methoxypyridin-3-yl)piperazin-1-yl)pyrimidine-2,4-diamine] | 2690 | 209.762 | 14 | – | – |
| Nc1ncc(N2CCN(c3cccc(Cl)n3)CC2)c(N)n1 [Compound 150, 5-(4-(6-chloropyridin-2-yl)piperazin-1-yl)pyrimidine-2,4-diamine] | 653 | 59.955 | 10.8 | – | – |
| Nc1ncc(N2CCN(c3ccc(C(F)(F)F)nc3)CC2)c(N)n1 [Compound 112] | 2040 | – | – | – | IC50 (T. cruzi DHFR (tcDHFR)): 5.62 nM |
| COc1cccc(N2CCN(c3cnc(N)nc3N)CC2)c1 [Compound 9, 5-(4-(3-methoxyphenyl)piperazin-1-yl)pyrimidine-2,4-diamine] | – | – | – | – | IC50 (T. cruzi DHFR (tcDHFR)): 28.8 nM |
| Nc1ncc(N2CCN(c3ccc(C(F)(F)F)cn3)CC2)c(N)n1 [Compound 140, 5-(4-(5-(trifluoromethyl)pyridin-2-yl)piperazin-1-yl)pyrimidine-2,4-diamine] | 617 | 90.29 | 7 | – | – |
| Nc1ncc(N2CCN(c3cc(Cl)ccc3F)CC2)c(N)n1 [Compound 144, 5-(4-(5-chloro-2-fluorophenyl)piperazin-1-yl)pyrimidine-2,4-diamine] | 8610 | 52.69 | 170 | – | – |
| Nc1ncc(N2CCN(c3cccc(-c4ccncn4)c3)CC2)c(N)n1 [Compound 102, 5-(4-(3-(pyrimidin-4-yl)phenyl)piperazin-1-yl)pyrimidine-2,4-diamine] | 1660 | – | – | – | IC50 (T. cruzi DHFR (tcDHFR)): 15.8 nM |
| Nc1ncc(N2CCN(c3ccnc(Cl)c3)CC2)c(N)n1 [Compound 147, 5-(4-(2-chloropyridin-4-yl)piperazin-1-yl)pyrimidine-2,4-diamine] | 180 | 24.92 | 7.41 | – | – |
| Nc1ncc(N2CCN(c3cc(Cl)ccn3)CC2)c(N)n1 [Compound 148, 5-(4-(4-chloropyridin-2-yl)piperazin-1-yl)pyrimidine-2,4-diamine] | 2190 | 94.81 | 22.9 | – | – |
| COc1ccc(N2CCN(c3cnc(N)nc3N)CC2)cc1 [Compound 114, 5-(4-(4-methoxyphenyl)piperazin-1-yl)pyrimidine-2,4-diamine] | 813 | – | – | – | IC50 (T. cruzi DHFR (tcDHFR)): 5.62 nM |
| CN(Cc1cnc2nc(N)nc(N)c2n1)c1ccc(C(=O)N[C@@H](CCC(=O)O)C(=O)O)cc1 [Methotrexate] | – | – | – | – | IC50 (T. cruzi DHFR (tcDHFR)): 1.1 nM |
| Nc1ncc(N2CCN(c3cncc(Br)c3)CC2)c(N)n1 [Compound 145, 5-(4-(5-bromopyridin-3-yl)piperazin-1-yl)pyrimidine-2,4-diamine] | 1170 | 56.7 | 21.6 | – | – |
| Nc1ncc(N2CCN(c3cccc(C4CCCOC4)c3)CC2)c(N)n1 (stereo not drawn) [Compound 179] | 484 | 17.495 | 28.8 | – | – |
| Nc1ncc(N2CCN(c3ccc(F)c(Cl)c3)CC2)c(N)n1 [Compound 143, 5-(4-(3-chloro-4-fluorophenyl)piperazin-1-yl)pyrimidine-2,4-diamine] | 684 | 41.735 | 16.6 | – | – |
| CCc1nc(N)nc(N)c1-c1ccc(Cl)cc1 [pyrimethamine, reference compound] | – | – | – | – | IC50 (T. cruzi DHFR (tcDHFR)): 1000 nM |

| SMILES | IC50 (hDHFR; [1]) [nM] | Average DHFR selectivity (h/tc) (T. cruzi DHFR (tcDHFR); Table 17) | IC50 (T. cruzi DHFR (tcDHFR); [2]) [nM] | IC50 (hDHFR; [3]) [nM] | also measured |
| --- | --- | --- | --- | --- | --- |
| Nc1ncc(N2CCN(c3ccc(Cl)cn3)CC2)c(N)n1 [Compound 149, 5-(4-(5-chloropyridin-2-yl)piperazin-1-yl)pyrimidine-2,4-diamine] | 1970 | 122.69 | 16.2 | – | – |
| C[C@@H]1CN(c2cnc(N)nc2N)CCN1c1cccc(C2CCOCC2)c1 [Compound 176] | – | – | – | 107 | Average DHFR selectivity (h/tg) (T. gondii DHFR (tgDHFR); Table 16): 47.03; IC50 (T. gondii DHFR (tgDHFR); [4]): 2.29 nM |
| COc1ncc(-c2ccnc(N3CCN(c4cnc(N)nc4N)CC3)c2)cn1 [Compound 165] | – | – | – | 355 | Average DHFR selectivity (h/tg) (T. gondii DHFR (tgDHFR); Table 16): 82.03; IC50 (T. gondii DHFR (tgDHFR); [4]): 4.37 nM |
| C[C@H]1CN(c2cnc(N)nc2N)CCN1c1cccc(C2CCOCC2)c1 [Compound 174] | – | – | – | 955 | Average DHFR selectivity (h/tg) (T. gondii DHFR (tgDHFR); Table 16): 30.69; IC50 (T. gondii DHFR (tgDHFR); [4]): 31.6 nM |
| Nc1ncc(N2CCN(c3cnc(C(F)(F)F)nc3)CC2)c(N)n1 [Compound 142, 5-(4-(2-(trifluoromethyl)pyrimidin-5-yl)piperazin-1-yl)pyrimidine-2,4-diamine] | 7630 | 206.5 | 38.5 | – | – |
| CCc1nc(N)nc(N)c1N1CCN(c2cccc(OC)c2)CC1 [Compound 33, 6-ethyl-5-(4-(3-methoxyphenyl)piperazin-1-yl)pyrimidine-2,4-diamine] | – | – | – | – | IC50 (hDHFR; hDHFR pIC50-DHFR primary assay): 525 nM; IC50 (T. gondii DHFR (tgDHFR)): 4.37 nM |
| Nc1ncc(N2CCN(c3ccc(C(F)(F)F)cc3)CC2)c(N)n1 [Compound 115, 5-(4-(4-(trifluoromethyl)phenyl)piperazin-1-yl)pyrimidine-2,4-diamine] | – | – | – | – | IC50 (hDHFR): 813 nM; IC50 (T. cruzi DHFR (tcDHFR)): 6.17 nM |
| CCCc1nc(N)nc(N)c1N1CCN(c2ncc(C)cn2)CC1 [Compound 59, 5-(4-(5-methylpyrimidin-2-yl)piperazin-1-yl)-6-propylpyrimidine-2,4-diamine] | – | – | – | 8130 | IC50 (T. gondii DHFR (tgDHFR)): 70.8 nM |
| Nc1ncc(N2CCN(c3ccc(Cl)nc3)CC2)c(N)n1 [Compound 141, 5-(4-(6-chloropyridin-3-yl)piperazin-1-yl)pyrimidine-2,4-diamine] | 417 | 67.2 | 6.31 | – | – |
| C[C@@H]1CN(c2cnc(N)nc2N)CCN1c1cccc(C2=CCOCC2)c1 [Compound 194, (R)-5-(4-(3-(3,6-dihydro-2H-pyran-4-yl)phenyl)-3-methylpiperazin-1-yl)pyrimidine-2,4-diamine] | – | – | – | 33.1 | Average DHFR selectivity (h/tg) (T. gondii DHFR (tgDHFR); Table 16): 18.10; IC50 (T. gondii DHFR (tgDHFR); [4]): 1.82 nM |
| C[C@H]1CN(c2cnc(N)nc2N)CCN1c1cccc(C2=CCOCC2)c1 [Compound 192, (S)-5-(4-(3-(3,6-dihydro-2H-pyran-4-yl)phenyI)-3-methylpiperazin-1-yl)pyrimidine-2,4-diamine] | – | – | – | 479 | Average DHFR selectivity (h/tg) (T. gondii DHFR (tgDHFR); Table 16): 17.89; IC50 (T. gondii DHFR (tgDHFR); [4]): 27.5 nM |
| CCc1nc(N)nc(N)c1N1CCN(c2cccc(C)c2)CC1 [Compound 31, 6-ethyl-5-(4-(m-tolyl)piperazin-1-yl)pyrimidine-2,4-diamine] | – | – | – | 417 | IC50 (T. gondii DHFR (tgDHFR)): 3.47 nM |
| CCc1ncc(-c2cccc(N3CCN(c4cnc(N)nc4N)CC3)c2)cn1 [Compound 95] | – | – | – | 1580 | IC50 (hDHFR; Table 18, pIC50 = -log10 IC50, at least three replicates, read-out: hDHFR pIC50-DHFR primary assay (converted)): 1410 nM; IC50 (T. gondii DHFR (tgDHFR)): 7.24 nM |
| Nc1ncc(N2CCN(c3cccc(N4CCOCC4)c3)CC2)c(N)n1 [Compound 25, 5-(4-(3-morpholinophenyl)piperazin-1-yl)pyrimidine-2,4-diamine] | – | – | – | 14100 | IC50 (T. gondii DHFR (tgDHFR)): 138 nM |
| Cc1nc(N)nc(N)c1N1CCN(c2ccccc2)CC1 [Compound 47, 6-methyl-5-(4-phenylpiperazin-1-yl)pyrimidine-2,4-diamine] | – | – | – | 2240 | IC50 (T. gondii DHFR (tgDHFR)): 26.3 nM |
| Cc1nc(N)nc(N)c1N1CCN(c2cccc(Cl)c2)CC1 [Compound 46, 5-(4-(3-chlorophenyl)piperazin-1-yl)-6-methylpyrimidine-2,4-diamine] | – | – | – | – | IC50 (hDHFR): 240 nM; IC50 (T. gondii DHFR (tgDHFR)): 8.13 nM; Average DHFR selectivity (h/tg) (T. gondii DHFR (tgDHFR); Table 16): 29.68 |
| COc1ncc(-c2cc(F)cc(N3CCN(c4cnc(N)nc4N)CC3)c2)cn1 [Compound 161] | – | – | – | 138 | Average DHFR selectivity (h/tg) (T. gondii DHFR (tgDHFR); Table 16): 51.27; IC50 (T. gondii DHFR (tgDHFR); [4]): 2.69 nM |
